According to paper PMC5319980, “Mutant Analysis Reveals Allosteric Regulation of ClpB Disaggregase” (Frontiers in Molecular Biosciences, 2017):
Values belong to the compound of their own block, whether it stands above or below them.

What was measured:
ClpB [1] = molecular target: T1, ClpB (Escherichia coli, UniProt P63284); assay: NADH-coupled ATPase assay with purified ClpB, without and with casein; format: biochemical
T1 construct: ClpB wild type

ClpB [2] = molecular target: T1, ClpB; assay: biochemical; parameters: competition titration of nucleotide against preformed ClpB-mantADP complex, mantADP fluorescence; conditions: competition with 1.25 uM mantADP; read-out: Knuc (WT)
Procedure: with F: observed fluorescence; F0: starting fluorescence without nucleotide; F1: maximum fluorescence observed; [ATP]: concentration of ADP/ATPγS (μM); Ki,app: apparent dissociation constant. with Ki,app: apparent dissociation constant; Ki: dissociation constant; [mantADP]: mantADP concentration (μM); Kd (mantADP): dissociation constant of mantADP. […] ClpB WT and mutants were incubated for 5 min at 25°C in presence of 2 mM ATPγS. Crosslinking reactions were started by addition of glutaraldehyde and proceeded for 2 and 10 min. Crosslinking products were separated by SDS-PAGE, followed by Sypro-Ruby staining. Supplementary Figure 2 Nucleotide binding properties of ClpB wild type. (A)1,5 µM mantADP was incubated with increasing concentrations of ClpB wild type and derivatives and the increase in mantADP fluorescence was determined. The fluorescence intensity of mantADP in absence of ClpB proteins was set at 1. Determined dissociation constants (Kd) are given. (B) Increasing nucleotide concentrations (ADP, ATPγS) were added to a preformed ClpB-mantADP complex (1,25 µM MANTADP, 1,25 µM ClpB WT or derivatives). Determined dissociation constants (Kd) are given.

ClpB [3] = molecular target: T1, ClpB; assay: equilibrium fluorescence titration of mantADP with ClpB; format: binding
ClpB [4] = molecular target: ClpB (Escherichia coli, UniProt P63284, A328V); assay: as above; format: binding
Chain of ClpB (Escherichia coli, UniProt P63284, A328V) (P63284 whole entry A328V): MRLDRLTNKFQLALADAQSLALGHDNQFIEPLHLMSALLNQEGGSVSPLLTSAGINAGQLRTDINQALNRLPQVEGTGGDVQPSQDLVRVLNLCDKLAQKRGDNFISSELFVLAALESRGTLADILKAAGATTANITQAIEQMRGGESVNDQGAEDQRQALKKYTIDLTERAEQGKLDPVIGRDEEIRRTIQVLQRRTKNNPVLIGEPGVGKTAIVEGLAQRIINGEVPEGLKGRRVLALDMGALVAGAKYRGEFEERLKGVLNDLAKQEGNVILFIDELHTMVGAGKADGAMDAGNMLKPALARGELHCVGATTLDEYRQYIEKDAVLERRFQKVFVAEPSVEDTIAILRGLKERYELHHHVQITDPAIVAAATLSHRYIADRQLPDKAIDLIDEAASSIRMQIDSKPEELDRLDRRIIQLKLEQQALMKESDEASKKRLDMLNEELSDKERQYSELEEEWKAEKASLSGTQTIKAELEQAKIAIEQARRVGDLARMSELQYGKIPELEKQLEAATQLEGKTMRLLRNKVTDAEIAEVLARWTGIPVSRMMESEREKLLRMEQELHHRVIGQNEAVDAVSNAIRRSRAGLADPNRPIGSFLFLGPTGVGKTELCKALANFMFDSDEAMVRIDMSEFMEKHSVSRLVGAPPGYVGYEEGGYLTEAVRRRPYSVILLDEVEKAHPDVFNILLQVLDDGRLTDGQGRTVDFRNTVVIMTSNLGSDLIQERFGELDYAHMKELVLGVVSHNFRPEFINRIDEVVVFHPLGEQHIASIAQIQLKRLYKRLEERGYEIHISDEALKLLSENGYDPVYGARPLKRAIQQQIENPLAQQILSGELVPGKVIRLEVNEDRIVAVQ

ClpB [5] = molecular target: ClpB (Escherichia coli, UniProt P63284, K476C); assay: as above; format: binding
Chain of ClpB (Escherichia coli, UniProt P63284, K476C) (P63284 whole entry K476C, looked up): as the sequence (P63284 whole entry A328V) above, with V328A, K476C counted along it

T1 sequence (P63284 whole entry): as the sequence (P63284 whole entry A328V) above, with V328A counted along it

Compound: Nc1ncnc2c1ncn2[C@@H]1O[C@H](COP(=O)(O)OP(=O)(O)OP(=O)(O)O)[C@@H](O)[C@H]1O [ATP]
- NADH-coupled ATPase assay with purified ClpB, without and with casein (ClpB [1]): ATPase activities of ClpB wild type (WT) and indicated ClpB mutants were determined in absence (−) and presence (+)

- Kd (ClpB [2]): 8.1 µM
Compound: Nc1ncnc2c1ncn2[C@@H]1O[C@H](CO[P@](=O)(O)O[P@](=O)(O)O[P@@](=O)(O)S)[C@@H](O)[C@H]1O [ATPγS]

Compound: mantADP
- Kd (ClpB [3]): 230 nM
- Kd (ClpB [4]): 510 nM
- Kd (ClpB [5]): 250 nM

- Kd (ClpB [2]): 7.6 µM
Compound: Nc1ncnc2c1ncn2[C@@H]1O[C@H](COP(=O)(O)OP(=O)(O)O)[C@@H](O)[C@H]1O [ADP]
